According to US5391549A, “Cinnoline-3-carboxylic acid derivatives” (Mitsubishi Kasei Corporation, priority 1992, dated 1995):
Structures can show the parent of a compound that is named as a salt.

Each compound was assayed against T1, 5-HT3 receptor (Rattus norvegicus, UniProt P35563) (assay: Inhibitory effect on the Bezold-Jarish's reflex induced in anesthetized rats with 5-HT (5HT3 receptor antagonistic effect)). Settings: iv, i.v. test compound, 5-HT 8 μg/kg i.v., urethane-anesthetized male Wister rats, dose giving 50% inhibition, read-out: B-J Reflex Inhibition (ID50).
T1 construct: from tissue; host or cells: whole living rat (male Wistar, urethane-anesthetized); endogenous receptor
T1 sequence (P35563 24-483): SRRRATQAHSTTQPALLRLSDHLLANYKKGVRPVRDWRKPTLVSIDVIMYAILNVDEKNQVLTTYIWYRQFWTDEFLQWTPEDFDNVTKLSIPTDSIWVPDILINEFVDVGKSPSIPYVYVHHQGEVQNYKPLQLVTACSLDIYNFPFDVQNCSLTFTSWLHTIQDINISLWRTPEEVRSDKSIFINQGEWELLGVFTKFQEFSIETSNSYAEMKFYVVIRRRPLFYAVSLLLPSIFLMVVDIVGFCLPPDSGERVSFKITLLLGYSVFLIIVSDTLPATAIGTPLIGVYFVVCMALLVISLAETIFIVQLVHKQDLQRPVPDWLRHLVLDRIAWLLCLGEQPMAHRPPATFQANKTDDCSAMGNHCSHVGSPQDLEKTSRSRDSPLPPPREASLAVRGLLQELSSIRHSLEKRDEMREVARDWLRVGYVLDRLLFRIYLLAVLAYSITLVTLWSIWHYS
Assay type: in vivo, rat (male Wister strain)
Procedure: 1) 5HT3 Receptor Antagonistic Effect
The antagonistic activity of the compounds of the invention to 5-HT3 receptor was evaluated as to the inhibitory effect on the Bezold-Jarish's reflex induced in anesthetized rats with 5-HT as follows.
Male Wister strain rats (300-400 g weight) were anesthetized by peritoneal injection of urethane (1.25 g/kg) and the heart rate was monitored from an electrocardiograph. Rats were intravenously injected with physiological saline (0.5 ml/kg) and 5-HT (8 μg/kg) solution (0.5 ml/kg) in physiological saline at five minutes interval and the change in the heart rate was recorded (A). Another group of rats were intravenously injected with a test compound and 5-HT solution in the same manner as the above at five minutes interval and the change in the heart rate was recorded (B). The percent inhibition of 5-HT-induced Bezold-Jarish's reflex was calculated as follows.
Inhibition (%)=(1-B/A)×100
In the Table, ID50 is a dose of a compound (I) of the invention which gives a 50% inhibition. The compound number in Table 4 correspond to those in Tables 1-3.
For `CCCn1nc(C(=O)NC2CC3CCC(C2)N3C)c(=O)c2cccc(F)c21` (stereo not drawn) [Compound 102, 8-Fluoro-N-(endo-8-methyl-8-azabicyclo[3.2.1]oct-3-yl)-1-propyl-1,4-dihydro-4-oxocinnoline-3-carboxamide hydrochloride], the ED50 was 0.2 µg/kg. In the case of `CCn1nc(C(=O)NC2CC3CCC(C2)N3C)c(=O)c2ccccc21` (stereo not drawn) [Compound 76, N-(endo-8-methyl-8-azabicyclo[3.2.1]oct-3yl)-1-ethyl-1,4-dihydro-4-oxocinnoline-3-carboxamide hydrochloride], the ED50 was 0.3 µg/kg. In the case of `CCCn1nc(C(=O)NC2CC3CCC(C2)N3C)c(=O)c2ccccc21` (stereo not drawn) [Compound 86, N-(endo-8-methyl-8-azabicyclo[3.2.1]oct-3-yl)-1-propyl-1,4-dihydro-4-oxocinnoline-3-carboxamide hydrochloride], the ED50 was 0.15 µg/kg.
